This note sets out measurements from US12503437B2, “1,1-dimethyl-2-[(E)-2-phenylethenyl]-1H-benzo[e]indole derivatives and uses thereof” (Kaunas University of Technology, priority 2023, dated 2025).

Structures are written as SMILES. pEC50: −log10 of the molar value. Like-named read-outs stand apart in the source and are kept apart here.

Series [1] deals with G361 cells (human skin melanoma). The series is described as follows: MTT cell viability assay with photodynamic treatment. It is filed as cell-based. Particulars: 4 h treatment, further 72 h, MTT. The procedure:
For photodynamic treatments, G361 cells (human skin melanoma) were cultivated in DMEM medium without phenol red supplemented with 10% fetal bovine serum, 100 U/mL penicillin, 100 μg/mL streptomycin, 2 mM glutamine, at 37° C. in 5% CO2 atmosphere. Cells were treated with test compounds and after 4 h were irradiated (the maximal wavelength emission of 414 nm and different total doses up to 10 J/cm^2). Further cultivation lasted for subsequent 16, 24 or 72 h.
Cell viability (EC50) was determined using the MTT (Sigma-Aldrich) assay in 96-well microplates. Cells were seeded, next day treated with test compounds for 4 h and subsequently irradiated (the maximal wavelength emission of 414 nm and total dose of 2.5 and 10 J/cm^2). After irradiation, the cells were incubated for further 72 h and then the MTT solution was added. Cells were incubated for another 4 h at 37° C. and then the 0.1% SDS was added to the wells to solubilize the violet formazan crystals. The measurement of absorbance was carried out on reader Tecan Infinite M200Pro at 570 nm. Dark viability was measured in parallel under the same conditions without irradiation.

Series [2] in a line: Absorption and fluorescence properties in water. It is filed as physicochemical. Particulars: for λem: excitation wavelength 380 nm. Here is the method: To determine the wavelength of light, at which 1,1-dimethyl-2-[(E)-2-phenylethenyl]-1H-benzo[e]indole derivatives should be irradiated for the investigation of their photodynamic activity, the absorption and fluorescence properties thereof were measured in water. The excitation wavelength λex was set to 380 nm. Based on the results an in-house constructed LED based light source specifically designed for the irradiation of 96-well microplates and Petri dishes (Tomecka et al., CZ302829B6, 2006) was chosen, with a maximal wavelength emission of 414 nm and light intensity set to 20 mW/cm^2.

The mark [3] stands for this setting: G-361, dark kept G361 cells, read-out: G361 - EC50, Dark.
The mark [4] stands for this setting: G-361, light or radiation study, light irradiated (414 nm, 10 J/cm^2) G361 cells, irradiation, read-out: G361 - EC50, 10 J/cm^2.

Regarding `CC1(C)C(/C=C/c2ccccc2)=Nc2ccc3ccccc3c21` [Compound 3a, 1,1-Dimethyl-2-[(E)-2-phenylethenyl]-1H-benzo[e]indole], the pEC50 in series [1] (setting [3]) was 5.24. For the same compound, the pEC50 in series [1] (setting [4]) was 5.70. In addition, in series [2], the Stokes shift came out at 133 nm, the λabs turned out to be 397 nm and the λem is on record as 530 nm.

Consider `CC1(C)C(/C=C/c2cc(C(F)(F)F)cc(C(F)(F)F)c2)=Nc2ccc3ccccc3c21` [Compound 3b, 2-{(E)-2-[3,5-Bis(trifluoromethyl)phenyl]ethenyl}-1,1-dimethyl-1H-benzo[e]indole], for which, in series [1] (setting [3]), the pEC50 was less than 5.00. In addition, in series [1] (setting [4]), the pEC50 was 5.89. In series [2], the Stokes shift is recorded as 109 nm, the λabs is on record as 400 nm and the λem worked out at 509 nm.

With `CC1(C)C(/C=C/c2cc([N+](=O)[O-])ccc2Cl)=Nc2ccc3ccccc3c21` [Compound 3c, 2-[(E)-2-(2-Chloro-5-nitrophenyl)ethenyl]-1,1-dimethyl-1H-benzo[e]indole], the pEC50 in series [1] (setting [3]) is 5.16. Besides, the pEC50 in series [1] (setting [4]) was 5.92. In series [2], the Stokes shift stood at 98 nm, the λabs was determined as 443 nm and the λem was 541 nm.

`CC1(C)C(/C=C/c2ccc(F)cc2)=Nc2ccc3ccccc3c21` [Compound 3d, 2-[(E)-2-(4-Fluorophenyl)ethenyl]-1,1-dimethyl-1H-benzo[e]indole]: the pEC50 in series [1] (setting [3]) was 5.14. Besides, the pEC50 in series [1] (setting [4]) is 5.39. For the same compound, in series [2], the Stokes shift was found to be 102 nm, the λabs is reported as 430 nm and the λem came out at 532 nm.

With `CC1(C)C(/C=C/c2ccc(C(F)(F)F)cc2)=Nc2ccc3ccccc3c21` [Compound 3e, 1,1-Dimethyl-2-{(E)-2-[4-(trifluoromethyl)phenyl]ethenyl}-1H-benzo[e]indole], the pEC50 in series [1] (setting [3]) is 5.44. In addition, the pEC50 in series [1] (setting [4]) was 6.30. In series [2], the Stokes shift worked out at 116 nm, the λabs is given as 415 nm and the λem came out at 531 nm.

For the compound `COc1ccc(/C=C/C2=Nc3ccc4ccccc4c3C2(C)C)cc1[N+](=O)[O-]` [Compound 3f, 2-[(E)-2-(4-Methoxy-3-nitrophenyl)ethenyl]-1,1-dimethyl-1H-benzo[e]indole], in series [1] (setting [3]), the pEC50 is 5.31. In addition, the pEC50 in series [1] (setting [4]) was 6.70. In addition, in series [2], the Stokes shift is 146 nm, the λabs was found to be 403 nm and the λem turned out to be 549 nm.

With `CC1(C)C(/C=C/c2ccc(Cl)c([N+](=O)[O-])c2)=Nc2ccc3ccccc3c21` [Compound 3h, 2-[(E)-2-(4-Chloro-3-nitrophenyl)ethenyl]-1,1-dimethyl-1H-benzo[e]indole], the pEC50 in series [1] (setting [3]) is 5.14. Moreover, the pEC50 in series [1] (setting [4]) is 6.52. Moreover, in series [2], the Stokes shift came out at 106 nm, the λabs was 426 nm and the λem was 532 nm.

`CC1(C)C(/C=C/c2ccc(F)c([N+](=O)[O-])c2)=Nc2ccc3ccccc3c21` [Compound 3i, 2-(E)-2-(4-Fluoro-3-nitrophenyl)ethenyl-1,1-dimethyl-1H-benzo[e]indole]: the pEC50 in series [1] (setting [3]) was 5.11. Also, the pEC50 in series [1] (setting [4]) was 5.68. Moreover, in series [2], the Stokes shift came to 126 nm, the λabs is 399 nm and the λem was determined as 525 nm.

Turning to `CC1(C)C(/C=C/c2ccc(F)c(C#N)c2)=Nc2ccc3ccccc3c21` [Compound 3j, 5-[(E)-2-(1,1-Dimethyl-1H-benzo[e]indol-2-yl)ethenyl]-2-fluorobenzonitrile], the pEC50 in series [1] (setting [3]) was 5.29. The pEC50 in series [1] (setting [4]) was 5.89. Also, in series [2], the Stokes shift came out at 154 nm, the λabs stood at 369 nm and the λem was found to be 523 nm.

With `Cc1ccc(/C=C/C2=Nc3ccc4ccccc4c3C2(C)C)cc1[N+](=O)[O-]` [Compound 3k, 1,1-Dimethyl-2-[(E)-2-(4-methyl-3-nitrophenyl)ethenyl]-1H-benzo[e]indole], the pEC50 in series [1] (setting [3]) is 5.16. Further, in series [1] (setting [4]), the pEC50 was 5.89. Further, in series [2], the Stokes shift amounted to 98 nm, the λabs was 425 nm and the λem came out at 523 nm.

As to `CC1(C)C(/C=C/c2ccc3ccccc3c2)=Nc2ccc3ccccc3c21` [Compound 3l, 1,1-Dimethyl-2-[(E)-2-(naphthalen-2-yl)ethenyl]-1H-benzo[e]indole], the pEC50 in series [1] (setting [3]) was less than 5.00. The pEC50 in series [1] (setting [4]) is 5.89. Besides, in series [2], the Stokes shift is 86 nm, the λabs was 437 nm and the λem was 523 nm.

`CC1(C)C(/C=C/c2cccc([N+](=O)[O-])c2)=Nc2ccc3ccccc3c21` [Compound 3m, 1,1-Dimethyl-2-[(E)-2-(3-nitrophenyl)ethenyl]-1H-benzo[e]indole]: the pEC50 in series [1] (setting [3]) is 5.68. In series [1] (setting [4]), the pEC50 was 6.52. In series [2], the Stokes shift was determined as 89 nm, the λabs turned out to be 424 nm and the λem amounted to 513 nm.

`CC1(C)C(/C=C/c2cccc(C(F)(F)F)c2)=Nc2ccc3ccccc3c21` [Compound 3n, 1,1-Dimethyl-2-{(E)-2-[3-(trifluoromethyl)phenyl]ethenyl}-1H-benzo[e]indole]: the pEC50 in series [1] (setting [3]) is 5.11. The pEC50 in series [1] (setting [4]) was 5.89. In series [2], the Stokes shift came to 94 nm, the λabs is recorded as 426 nm and the λem is reported as 520 nm.

With `CC1(C)C(/C=C/c2cccc3ccccc23)=Nc2ccc3ccccc3c21` [Compound 3o, 1,1-Dimethyl-2-[(E)-2-(naphthalen-1-yl)ethenyl]-1H-benzo[e]indole], in series [1] (setting [3]), the pEC50 is less than 5.00. Also, the pEC50 in series [1] (setting [4]) was 6.40. Also, in series [2], the Stokes shift is listed as 113 nm, the λabs was 445 nm and the λem is given as 558 nm.

Turning to `CC1(C)C(/C=C/c2ccccc2[N+](=O)[O-])=Nc2ccc3ccccc3c21` [Compound 3p, 1,1-Dimethyl-2-[(E)-2-(2-nitrophenyl)ethenyl]-1H-benzo[e]indole], in series [1] (setting [3]), the pEC50 is 5.11. Moreover, the pEC50 in series [1] (setting [4]) is 5.96. In series [2], the Stokes shift came out at 132 nm, the λabs stood at 434 nm and the λem was 566 nm.
